Assays:
[1] = clinical trials in patients with obesity, PWS, or type 2 diabetes; cited from earlier work
[2] = Major metabolites in rats dosed SC; type: in vivo
[3] = dog, in vivo, sc
Method: Male and female beagle dogs of 9 to 11 months of age for PK characterization were individually housed at the testing facility Approximately 325 g of pelleted food was provided daily. […] Animals were observed twice daily for signs of ill health, morbidity, mortality, injury, and viability, and detailed clinical observations were conducted daily (including urine/fecal examination and hands-on examination). Food was weighed daily, and body weights were recorded at least weekly.
Samples were collected in tubes containing lithium heparin and processed for plasma by centrifugation (10 minutes at 3000 rpm). Supernatant was removed and stored frozen (−70° C.) until processed (BASi, West Lafayette, Ind.). Plasma drug concentration data were used to calculate PK parameters for individual concentration data using noncompartmental PK methods in Watson™ version 7.3.0.01 (Thermo Fisher Scientific, Inc., Waltham, Mass.).

[4] = Red blood cell partitioning; type: in vitro ADME; conditions: Compound A compared with beloranib
[5] = tested on: plasma proteins; assay: Protein binding in human plasma (dialysis); type: in vitro ADME; conditions: plasma; human, summary over concentrations; read-out: bound to plasma proteins

CO[C@@H]1[C@H](OC(=O)/C=C/c2ccc(OCCN(C)C)cc2)CC[C@]2(CO2)[C@H]1[C@@]1(C)O[C@@H]1CC=C(C)C [beloranib, reference compound]
adverse events (AEs) [1]: venous thromboembolism | pathway giving the major metabolites observed [2]: GSH conjugation and subsequent metabolic degradation of the GSH conjugates

CO[C@@H]1[C@H](OC(=O)N2CC(CCN3CCOCC3)C2)CC[C@]2(CO2)[C@H]1[C@@]1(C)O[C@@H]1CC=C(C)C [Compound A]
plasma concentration after the 4-hour timepoint [3]: undetectable | red blood cell partitioning [4]: similar | fraction unbound [5]: 0.65 to 0.75
